Assay results reported in patent US20190119284A1, “ErbB Inhibitors and Uses Thereof” (The Regents of the University of California, priority 2016, published 2019).
Like-named read-outs stand apart in the source and are kept apart here.

Experiments:
Assay type in all cases: cell-based
[1] = biological target: 2YF/3wt + NRG Ba/F3 cells (HER2YF/HER3wt) (Homo sapiens, UniProt P04626, Y1005F/Y1023F/Y1112F/Y1127F/Y1139F/Y1196F/Y1221F/Y1222F/Y1248F, cells depend on it); experiment: Ba/F3 proliferation assay, 2YF/3wt + NRG; conditions: Tables 7 and 8; read-out: Ba/F3 line IC50, HER2YF/HER3 + NRG
Sequence of 2YF/3wt + NRG Ba/F3 cells (HER2YF/HER3wt) (P04626 whole entry Y1005F/Y1023F/Y1112F/Y1127F/Y1139F/Y1196F/Y1221F/Y1222F/Y1248F): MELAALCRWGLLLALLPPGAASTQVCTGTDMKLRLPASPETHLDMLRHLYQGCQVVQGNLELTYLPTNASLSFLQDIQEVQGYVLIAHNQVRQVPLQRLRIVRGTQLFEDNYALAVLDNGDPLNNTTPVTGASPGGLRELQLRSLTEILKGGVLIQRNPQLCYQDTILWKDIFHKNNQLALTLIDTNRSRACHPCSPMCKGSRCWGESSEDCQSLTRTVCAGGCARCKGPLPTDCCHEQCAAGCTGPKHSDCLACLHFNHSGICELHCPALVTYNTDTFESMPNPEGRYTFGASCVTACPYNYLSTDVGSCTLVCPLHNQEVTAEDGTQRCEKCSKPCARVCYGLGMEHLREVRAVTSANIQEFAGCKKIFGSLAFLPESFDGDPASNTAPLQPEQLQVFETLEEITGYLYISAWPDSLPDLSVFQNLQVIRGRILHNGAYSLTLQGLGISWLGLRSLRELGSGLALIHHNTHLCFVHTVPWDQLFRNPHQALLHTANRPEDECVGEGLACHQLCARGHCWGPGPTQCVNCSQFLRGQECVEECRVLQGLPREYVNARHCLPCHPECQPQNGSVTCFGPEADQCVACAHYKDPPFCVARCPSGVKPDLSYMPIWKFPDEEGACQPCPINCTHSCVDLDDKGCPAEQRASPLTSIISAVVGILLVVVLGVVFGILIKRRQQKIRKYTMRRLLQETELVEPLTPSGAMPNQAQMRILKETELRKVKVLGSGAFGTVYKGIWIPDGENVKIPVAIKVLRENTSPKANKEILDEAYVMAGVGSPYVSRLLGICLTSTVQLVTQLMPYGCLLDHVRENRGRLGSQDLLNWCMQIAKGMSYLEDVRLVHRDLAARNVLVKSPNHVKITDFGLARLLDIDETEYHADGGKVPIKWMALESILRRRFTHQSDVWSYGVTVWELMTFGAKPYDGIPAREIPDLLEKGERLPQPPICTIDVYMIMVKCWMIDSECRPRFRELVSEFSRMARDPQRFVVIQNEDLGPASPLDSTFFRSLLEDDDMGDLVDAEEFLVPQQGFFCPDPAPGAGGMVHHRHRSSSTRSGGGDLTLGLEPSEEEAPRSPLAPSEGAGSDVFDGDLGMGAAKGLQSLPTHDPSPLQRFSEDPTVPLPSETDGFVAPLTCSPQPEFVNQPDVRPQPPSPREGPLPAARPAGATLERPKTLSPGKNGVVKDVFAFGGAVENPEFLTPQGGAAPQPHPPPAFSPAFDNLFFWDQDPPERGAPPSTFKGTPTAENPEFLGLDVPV
Excerpt: Ba/F3 cells are normally dependent on IL-3 signaling for their proliferation and survival, but can be made dependent on introduced oncogenic signals. We sequentially selected transduced Ba/F3 cells for populations stably expressing HER3 and then HER2. To ensure that all of the proliferative signal could be attributed to HER2/HER3 heterodimers, rather than HER2 homodimers, the 9 C-terminal tyrosines in HER2 were mutated to phenylalanine (HER2YF). We then withdrew IL-3 and supplemented the media with NRG to select for NRG dependent HER2YF/HER3wt cells (2YF/3wt).
For the 2YF/3wt cells, the parental cells were first transduced with HER3 according to the protocol above and were then spun down at 500×g for 5 min and re-suspended in media supplemented with 10 ng/mL IL-3 and 3 μg/mL puromycin (Invitrogen). Cells were maintained in these conditions for seven days, passaging as required. After seven days the cells were spun down, washed with fresh media, and then used for a subsequent round of transduction according to the protocol above with HER2YF virus. […] The cells were maintained in these conditions for seven days, passaging as required. After seven days the cells were spun down, washed with fresh media, and then suspended in media supplemented with 10 ng/mL of NRG. Cells were maintained in these conditions for seven days to select for a NRG dependent population of 2YF/3wt Ba/F3 cells that were then maintained as described above. The same protocol was used for the 2YF-L755S/3wt, 2YF-YVMA/3wt, and 2YF-VC/3wt cell lines using the indicated constructs.
Proliferation Assays. […] The following day media was changed to fresh media that contained either DMSO or the indicated concentration of drug plus NRG (50 ng/mL final concentration) as indicated. […] For all normalized assays, proliferation was normalized to the DMSO control condition. All graphs were plotted in GraphPad Prism 6 and fit with a non-linear regression of the log(inhibitor) vs response with a variable slope where shown. All graphs are averages (+/−standard deviation) of biological triplicates each performed in technical triplicate unless otherwise noted. If only one biological replicate was performed standard deviations were derived from the technical replicates.

Axl+ Ba/F3 cells = biological target: T1, Axl+ Ba/F3 cells (Homo sapiens, UniProt P30530); experiment: Ba/F3 proliferation assay, Axl+; conditions: Tables 7 and 8; read-out: Ba/F3 line IC50, Axl+
T1 sequence (P30530 1-894): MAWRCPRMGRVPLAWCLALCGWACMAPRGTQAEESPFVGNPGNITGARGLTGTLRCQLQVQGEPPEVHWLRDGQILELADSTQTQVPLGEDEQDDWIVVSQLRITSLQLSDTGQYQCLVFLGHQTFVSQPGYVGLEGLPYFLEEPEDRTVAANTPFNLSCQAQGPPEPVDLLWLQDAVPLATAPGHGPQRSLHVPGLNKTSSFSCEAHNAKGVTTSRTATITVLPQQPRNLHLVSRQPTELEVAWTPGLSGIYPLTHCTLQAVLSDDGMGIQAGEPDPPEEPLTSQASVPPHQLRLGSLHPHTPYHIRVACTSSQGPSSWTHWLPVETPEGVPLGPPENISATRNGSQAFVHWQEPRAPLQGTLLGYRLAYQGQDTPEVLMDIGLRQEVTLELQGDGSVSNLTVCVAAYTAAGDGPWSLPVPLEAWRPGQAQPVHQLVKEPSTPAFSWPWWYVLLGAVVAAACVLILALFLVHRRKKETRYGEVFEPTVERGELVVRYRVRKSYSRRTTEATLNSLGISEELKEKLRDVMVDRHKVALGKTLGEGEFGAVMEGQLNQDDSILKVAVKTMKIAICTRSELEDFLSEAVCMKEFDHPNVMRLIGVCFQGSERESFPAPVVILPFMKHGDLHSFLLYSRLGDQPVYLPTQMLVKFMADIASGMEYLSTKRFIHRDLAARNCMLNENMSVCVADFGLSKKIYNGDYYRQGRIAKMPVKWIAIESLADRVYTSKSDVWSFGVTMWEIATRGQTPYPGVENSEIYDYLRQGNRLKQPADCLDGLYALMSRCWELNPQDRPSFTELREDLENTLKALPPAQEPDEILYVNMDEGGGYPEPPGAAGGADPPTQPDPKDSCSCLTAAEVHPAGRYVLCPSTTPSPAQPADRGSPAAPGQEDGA
Description: (§1) To validate the screen and test the effectiveness of counter-screening with either the same 2YF/3wt Ba/F3 cell line or the parental Ba/F3's in the presence of IL-3 to remove cytotoxic primary hits, we first tested a panel of kinase inhibitors with established mechanisms of action.
For Axl+ cells, the transduced cells were spun down at 500×g for 5 min and resuspended in media supplemented with 10 ng/mL IL-3 and 3 μg/mL puromycin (Invitrogen). Cells were maintained in these conditions for 7 days, passaging as required. After 7 days the cells were spun down, washed with fresh media, and then suspended in IL-3 free media. The cells were maintained in these conditions for 2 weeks to select for an IL-3 independent population of Axl+ driven cells.
(§2) Proliferation Assays. For adherent cell lines, cells were plated onto opaque white 96 well plates (Greiner cat #655083) and allowed to adhere overnight. The following day media was changed to fresh media that contained either DMSO or the indicated concentration of drug plus NRG (50 ng/mL final concentration) as indicated. Plates were incubated at 37° C. for 72 h and proliferation was read out using Cell Titer Glo (Promega) according to the manufacturer's protocol. For Ba/F3 cell proliferation, cells, drug dilution, and any necessary growth factors (10 ng/mL IL-3 or 6.25 ng/mL NRG) were combined in a well of a 96 well plate. Plates were incubated at 37° C. for 48 h and proliferation was read out using Cell Titer Glo according to the manufacturer's protocol. For all normalized assays, proliferation was normalized to the DMSO control condition. All graphs were plotted in GraphPad Prism 6 and fit with a non-linear regression of the log(inhibitor) vs response with a variable slope where shown. All graphs are averages (+/−standard deviation) of biological triplicates each performed in technical triplicate unless otherwise noted. If only one biological replicate was performed standard deviations were derived from the technical replicates.

[2] = system: parental Ba/F3 cells + IL-3; experiment: Ba/F3 proliferation assay, Parental + IL-3; conditions: Tables 7 and 8, read-out: Ba/F3 line IC50, Parental + IL-3
Description: as §1, §2

HER2+/2VE Ba/F3 line = experiment: Ba/F3 proliferation assay, HER2+/2VE; conditions: Tables 7 and 8
Description: as §2

SMILES | GI50 [1] | GI50 (Axl+ Ba/F3 cells) | IC50 ([2]; Mus musculus, BaF3) | IC50 (HER2+/2VE Ba/F3 line; Mus musculus, BaF3) | IC50 [2] | IC50 (HER2+/2VE Ba/F3 line)
COc1ccc(-c2ccco2)cc1Nc1ncnc2[nH]nc(-c3ccco3)c12 [55A] | 0.0395 µM | > 3.33 µM | > 10 µM | 0.908 µM | – | –
CC(=O)c1cccc(-c2n[nH]c3ncnc(Nc4cc(-c5ccccc5)ccc4C)c23)c1 [Cmpd 5-001A] | > 3.33 µM | > 3.33 µM | > 10 µM | > 3.33 µM | – | –
CC(=O)c1cccc(-c2n[nH]c3ncnc(Nc4ccc(Oc5ccccc5)cc4)c23)c1 [Cmpd 5-001B] | > 10 µM | > 10 µM | > 10 µM | > 10 µM | – | –
COc1ccc(-c2ccccc2)cc1Nc1ncnc2[nH]ncc12 [Cmpd 5-004] | 2.59 µM | 6.94 µM | > 3.33 µM | 3.15 µM | – | –
COc1ccc(-c2ccccc2)cc1Nc1ncnc2[nH]nc(-c3ccoc3)c12 [Cmpd 13] | 0.839 µM | 2.96 µM | > 10 µM | 3.4 µM | – | –
COc1ccc(-c2ccccc2C)cc1Nc1ncnc2[nH]nc(-c3ccsc3)c12 [Cmpd 39A] | > 3.33 µM | > 10 µM | > 10 µM | > 10 µM | – | –
COc1ccc(-c2cccc(C)c2)cc1Nc1ncnc2[nH]nc(-c3ccsc3)c12 [Cmpd 39B] | > 3.33 µM | 1.76 µM | > 3.33 µM | > 3.33 µM | – | –
COc1ccc(-c2ccc(C)cc2)cc1Nc1ncnc2[nH]nc(-c3ccsc3)c12 [Cmpd 39C] | > 10 µM | > 10 µM | > 10 µM | > 10 µM | – | –
COc1ccc(-c2cccnc2)cc1Nc1ncnc2[nH]nc(-c3ccsc3)c12 [Cmpd 39D] | > 10 µM | > 10 µM | > 10 µM | > 10 µM | – | –
COc1ccc(-c2ccccc2)cc1Nc1nc(N)nc2[nH]nc(-c3ccco3)c12 [Cmpd 65] | 0.004 µM | – | 0.0084 µM | 0.011 µM | – | –
COc1ccc(-c2csc(C)n2)cc1Nc1ncnc2[nH]nc(-c3ccco3)c12 [Cmpd 66A] | 1.56 µM | – | – | 2.34 µM | – | –
COc1ccc(-c2sccc2C)cc1Nc1ncnc2[nH]nc(-c3ccco3)c12 [Cmpd 66B] | 0.031 µM | – | – | 0.21 µM | – | –
COc1ccc(-c2ccnn2C)cc1Nc1ncnc2[nH]nc(-c3ccco3)c12 [Cmpd 66C] | 0.362 µM | – | – | 0.642 µM | – | –
COc1ccc(-c2ccoc2)cc1Nc1ncnc2[nH]nc(-c3ccccc3)c12 [Cmpd 144A] | 0.171 µM | – | > 3.33 µM | 1.08 µM | – | –
COc1ccc(-c2ccoc2)cc1Nc1ncnc2[nH]nc(-c3cnn(C)c3)c12 [Cmpd 144B] | 0.0214 µM | – | > 3.33 µM | 0.307 µM | – | –
CCOc1ccc(-c2ccccc2)cc1Nc1ncnc2[nH]nc(-c3cn[nH]c3)c12 [Cmpd 147] | 0.0587 µM | – | 1.36 µM | 0.359 µM | – | –
COc1ccc(-c2ccoc2)cc1Nc1ncnc2[nH]nc(-c3ccnn3C)c12 [Cmpd 152] | 0.822 µM | – | > 10 µM | 2.57 µM | – | –
CCOc1ccc(-c2ccoc2)cc1Nc1ncnc2[nH]nc(-c3cn[nH]c3)c12 [Cmpd 153] | 0.0175 µM | – | > 3.33 µM | 0.285 µM | – | –
COc1ccc(-c2ccnn2C)cc1Nc1ncnc2[nH]nc(-c3cn[nH]c3)c12 [Cmpd 154A] | > 10 µM | – | > 10 µM | > 10 µM | – | –
COc1ccc(-c2sccc2C)cc1Nc1ncnc2[nH]nc(-c3cn[nH]c3)c12 [Cmpd 154B] | 0.0393 µM | – | > 10 µM | 0.295 µM | – | –
COc1ccc(-c2cnn(C)c2)cc1Nc1ncnc2[nH]nc(-c3cn[nH]c3)c12 [Cmpd 154C] | > 10 µM | – | > 10 µM | > 10 µM | – | –
COc1ccc(-c2ccc(C#N)s2)cc1Nc1ncnc2[nH]cc(-c3cn[nH]c3)c12 [Cmpd 170] | 0.687 µM | – | – | 0.673 µM | – | –
CCOc1ccc(-c2ccccc2)cc1Nc1ncnc2[nH]cc(-c3cn[nH]c3)c12 [Cmpd 171] | 0.045 µM | – | – | 0.183 µM | – | –
COc1ccc(-c2csc(C)c2)cc1Nc1ncnc2[nH]cc(-c3cn[nH]c3)c12 [Cmpd 172] | 0.91 µM | – | – | 0.422 µM | – | –
COc1ccc(-c2ccoc2)cc1Nc1ncnc2[nH]cc(-c3ccc4nc[nH]c4c3)c12 [Cmpd 173B] | 0.032 µM | – | – | 0.228 µM | – | –
CCOc1ccc(-c2ccccc2)cc1Nc1ncnc2[nH]cc(-c3cc[nH]n3)c12 [Cmpd 176] | 0.029 µM | – | – | – | 2.29 µM | 0.217 µM
